Assays:
hPDE5 mutants [1] = molecular target: hPDE5 mutants (Homo sapiens, UniProt O76074); assay: GFP FACS analysis of hPDE5 mutant library clones in NIH3T3 cell pools; conditions: for MFI 10 μM VDF / MFI DMSO: GFP, NIH3T3 cell pools; for MFI 10 μM VDF: 10 μM vardenafil 24 hr; for MFI 10 μM VDF / MFI DMSO / GFP FACS analysis (MFI): experiment 1; for MFI DMSO: no ligand (DMSO)
Method: (§1) These constructs were packaged into lentivirus, transduced into NIH3T3 cells and select stable cell pools were derived as described below. […] Lentiviral stocks were used for transduction of NIH3T3 cells and subsequent cell pool selection. The day before transduction, NIH3T3 cells (1.8×10^6) were seeded in a T-25 flask and allowed to reach 60-70% confluency (˜1 day). The growth medium in the T-25 flask was then replaced with 1 mL virus (quickly thawed in a 37° C. water bath) and 5 μg/mL polybrene. […] Transduction medium was removed the following day and replaced with 5 mL fresh medium. At 48 hr after transduction, the medium was replaced with media containing 1 μg/mL puromycin. This puromycin medium was replaced every 3-4 days until cell pools were established (˜2 weeks).
(§2) The mean fluorescence intensity (MFI) of GFP at 100 μM concentration treatment was set as 100% hPDE5 stabilization effect (HPE), while DMSO treatment was set as 0% effect (ZPE) of hPDE5 stabilization. The effect of the compound on hPDE5 stabilization was calculated based on the following formula: % PDE5 stabilization effect=(MFI-ZPE)/(HPE-ZPE)×100.
(§3) Plots of the % effect versus concentration were generated with Graphpad Prism 5 and EC50 values were calculated using a four-parameter nonlinear regression model.
(§4) Select PDE5 clones from both experiment 1 and experiment 2 were directly compared. […] The stabilization ratio was calculated as the fold change in GFP intensity in ligand treated samples compared to treatment with DMSO (i.e. in the absence of ligand) with the same construct.

hPDE5 mutants [2] = assay: as above; conditions: experiment 1
Method: as §1, §2, §3, §4

Substance	MFI 10 μM VDF (hPDE5 mutants [1])	MFI DMSO (hPDE5 mutants [1])	GFP FACS analysis (MFI) (hPDE5 mutants [1]; SDF 3.704 μM)	GFP FACS analysis (MFI) (hPDE5 mutants [1]; SDF 11.111 μM)	GFP FACS analysis (MFI) (hPDE5 mutants [1]; SDF 33.333 μM)	GFP FACS analysis (MFI) (hPDE5 mutants [1]; SDF 100 μM)	GFP FACS analysis (MFI) (hPDE5 mutants [1]; TDF 3.704 μM)	GFP FACS analysis (MFI) (hPDE5 mutants [1]; TDF 11.111 μM)	GFP FACS analysis (MFI) (hPDE5 mutants [1]; TDF 33.333 μM)	GFP FACS analysis (MFI) (hPDE5 mutants [1]; TDF 100 μM)	GFP FACS analysis (MFI) (hPDE5 mutants [1]; VDF 1.235 μM)	GFP FACS analysis (MFI) (hPDE5 mutants [1]; VDF 3.704 μM)	GFP FACS analysis (MFI) (hPDE5 mutants [1]; VDF 11.111 μM)	GFP FACS analysis (MFI) (hPDE5 mutants [1]; VDF 33.333 μM)	GFP FACS analysis (MFI) (hPDE5 mutants [1]; VDF 100 μM)	GFP FACS analysis (MFI) (hPDE5 mutants [2]; DMSO (no ligand), SDF series)	GFP FACS analysis (MFI) (hPDE5 mutants [2]; DMSO (no ligand), TDF series)	GFP FACS analysis (MFI) (hPDE5 mutants [2]; DMSO (no ligand), VDF series)	GFP FACS analysis (MFI) (hPDE5 mutants [2]; SDF 1.235 μM)	Percent stabilization effect (hPDE5 mutants [2]; SDF 1.235 μM)	other results
LibC000015: hPDE5 (Amino acid 535-860 of WT, T571S, V585M, T723S), DD generated by random mutagenesis	1951	174	331	357	432	630	326	374	463	518	756	1383	2315	3166	3069	301	306	373	320	5.8%	Percent stabilization effect (hPDE5 mutants [2]; SDF 3.704 μM): 9.1%; Percent stabilization effect (hPDE5 mutants [2]; SDF 11.111 μM): 17.0%; Percent stabilization effect (hPDE5 mutants [2]; SDF 33.333 μM): 39.8%; Percent stabilization effect (hPDE5 mutants [2]; SDF 100 μM (set as 100%)): 100.0%; GFP FACS analysis (MFI) (hPDE5 mutants [2]; TDF 1.235 μM): 311; Percent stabilization effect (hPDE5 mutants [2]; TDF 1.235 μM): 2.4%; Percent stabilization effect (hPDE5 mutants [2]; TDF 3.704 μM): 9.4%; Percent stabilization effect (hPDE5 mutants [2]; TDF 11.111 μM): 32.1%; Percent stabilization effect (hPDE5 mutants [2]; TDF 33.333 μM): 74.1%; Percent stabilization effect (hPDE5 mutants [2]; TDF 100 μM (set as 100%)): 100.0%; Percent stabilization effect (hPDE5 mutants [2]; VDF 1.235 μM): 14.2%; Percent stabilization effect (hPDE5 mutants [2]; VDF 3.704 μM): 37.5%; Percent stabilization effect (hPDE5 mutants [2]; VDF 11.111 μM): 72.0%; Percent stabilization effect (hPDE5 mutants [2]; VDF 33.333 μM): 103.6%; Percent stabilization effect (hPDE5 mutants [2]; VDF 100 μM (set as 100%)): 100.0%
LibC000020: hPDE5 (Amino acid 535-860 of WT, A722V, F755L, M760I), DD generated by random mutagenesis	1459	332	376	373	407	513	342	371	440	509	399	733	1395	2144	2499	338	243	238	371	18.9%	Fluorescence intensity Sildenafil (hPDE5 mutants [1]; median GFP fluorescence by FACS, 10 μM Sildenafil, direct comparison of clones): 513; Fluorescence intensity Tadalafil (hPDE5 mutants [1]; median GFP fluorescence by FACS, 10 μM Tadalafil, direct comparison of clones): 509; Fluorescence intensity Vardenafil (hPDE5 mutants [1]; median GFP fluorescence by FACS, 10 μM Vardenafil, direct comparison of clones): 2499; Fluorescence intensity DMSO (hPDE5 mutants [1]; median GFP fluorescence by FACS, vehicle DMSO (no ligand), direct comparison of clones): 273; Percent stabilization effect (hPDE5 mutants [2]; SDF 3.704 μM): 21.7%; Percent stabilization effect (hPDE5 mutants [2]; SDF 11.111 μM): 20.0%; Percent stabilization effect (hPDE5 mutants [2]; SDF 33.333 μM): 39.4%; Percent stabilization effect (hPDE5 mutants [2]; SDF 100 μM (set as 100%)): 100.0%; GFP FACS analysis (MFI) (hPDE5 mutants [2]; TDF 1.235 μM): 337; Percent stabilization effect (hPDE5 mutants [2]; TDF 1.235 μM): 35.3%; Percent stabilization effect (hPDE5 mutants [2]; TDF 3.704 μM): 37.2%; Percent stabilization effect (hPDE5 mutants [2]; TDF 11.111 μM): 48.1%; Percent stabilization effect (hPDE5 mutants [2]; TDF 33.333 μM): 74.1%; Percent stabilization effect (hPDE5 mutants [2]; TDF 100 μM (set as 100%)): 100.0%; Percent stabilization effect (hPDE5 mutants [2]; VDF 1.235 μM): 7.1%; Percent stabilization effect (hPDE5 mutants [2]; VDF 3.704 μM): 21.9%; Percent stabilization effect (hPDE5 mutants [2]; VDF 11.111 μM): 51.2%; Percent stabilization effect (hPDE5 mutants [2]; VDF 33.333 μM): 84.3%; Percent stabilization effect (hPDE5 mutants [2]; VDF 100 μM (set as 100%)): 100.0%

Reference: US20220403001A1, “PDE5 DERIVED REGULATORY CONSTRUCTS AND METHODS OF USE IN IMMUNOTHERAPY” (Obsidian Therapeutics, Inc., priority 2018, published 2022)
